We go through 14 compounds from ChEMBL document CHEMBL4665882, “Allosteric kidney-type glutaminase (GLS) inhibitors with a mercaptoethyl linker” (Bioorg Med Chem, 2020).

Series [1] in a line: Inhibition of human recombinant glutaminase assessed as reduction in glutamate production in presence of NADPH-dependent glutamate dehydrogenase preincubated 60 mins by coupled biochemical assay.
Series [2] deals with T1, Glutaminase kidney isoform, mitochondrial (Homo sapiens, UniProt O94925).
T1 sequence (O94925 whole entry): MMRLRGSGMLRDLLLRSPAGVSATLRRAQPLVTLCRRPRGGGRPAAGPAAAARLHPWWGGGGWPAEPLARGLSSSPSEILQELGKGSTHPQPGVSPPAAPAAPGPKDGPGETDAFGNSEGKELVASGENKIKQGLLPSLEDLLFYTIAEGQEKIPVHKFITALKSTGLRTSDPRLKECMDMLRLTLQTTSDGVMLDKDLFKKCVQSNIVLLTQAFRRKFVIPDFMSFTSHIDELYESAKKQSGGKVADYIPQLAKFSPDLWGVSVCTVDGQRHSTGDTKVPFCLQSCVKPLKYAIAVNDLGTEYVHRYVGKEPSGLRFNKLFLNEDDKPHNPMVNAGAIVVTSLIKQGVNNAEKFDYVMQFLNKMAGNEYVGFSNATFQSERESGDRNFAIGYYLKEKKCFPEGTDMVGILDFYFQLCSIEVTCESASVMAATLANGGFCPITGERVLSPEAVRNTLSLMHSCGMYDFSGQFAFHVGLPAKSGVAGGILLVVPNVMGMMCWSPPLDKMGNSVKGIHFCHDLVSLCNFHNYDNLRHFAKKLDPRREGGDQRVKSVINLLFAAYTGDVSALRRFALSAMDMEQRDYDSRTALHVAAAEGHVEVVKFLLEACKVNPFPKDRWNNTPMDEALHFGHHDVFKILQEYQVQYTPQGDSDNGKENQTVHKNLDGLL
The experiment in a line: Allosteric inhibition of human kidney glutaminase using [3H]-Glutamine as substrate in presence of inhibitor incubated for 45 mins by Perkin Elmer based assay.

Series [3] can be described thus: Inhibition of glutaminase (unknown origin) preincubated for 60 mins. Also on record: species or system Homo sapiens.
A short description of series [4]: Aqueous solubility of compound in PBS 7.4 at 5 mg/ml incubated for 24 hrs by LC-MS-based shake-flask method. In kind it is physicochemical. The settings on record: buffer, pH 7.4, 24 h.
Series [5] can be described thus: Metabolic stability in mouse liver microsomes assessed as compound remaining after 60 mins incubation in presence of NADPH by LC-MS/MS analysis. In kind it is ADME, Microsome. The settings on record: 1 h.

Bounds are passed on as bounds.

`O=C(Cc1cccc(OC(F)(F)F)c1)Nc1ccc(CCCCc2nnc(NC(=O)Cc3ccccn3)s2)nn1`: in series [1], the half-inhibitory concentration (IC50) was under 50 nM. For `O=C(Cc1ccccc1)Nc1nnc(CSCc2nnc(NC(=O)Cc3ccccc3)s2)s1`, the values for the half-inhibitory concentration (IC50) in series [2] and in series [3] were over 100000 nM and over 20000 nM, respectively. In turn, `O=C(Cc1ccccc1)Nc1nnc([C@H]2CCC[C@H](c3nnc(NC(=O)Cc4ccccc4)s3)C2)s1` registered an IC50 in series [3] of under 100 nM. As to `O=C(Cc1ccccc1)Nc1ccc(CCSc2nnc(NC(=O)Cc3ccccc3)s2)nn1`, the IC50 in series [2] stood at 30 nM. Further, the solubility entry in series [4] is recorded as “Insoluble”. Regarding `Nc1nnc(CCSc2nnc(NC(=O)Cc3ccccc3)s2)s1`, the IC50 in series [2] came out at 1600 nM. The same measure, in the same setting: the result for `Nc1nnc(SCCc2nnc(NC(=O)Cc3ccccc3)s2)s1` reads 3000 nM. Consider `Nc1nnc(CCSc2ccc(NC(=O)Cc3ccccc3)nn2)s1`, for which, in series [2], the concentration for half-maximal inhibition (IC50) stood at 14000 nM.

For the compound `Nc1nnc(SCCc2ccc(NC(=O)Cc3ccccc3)nn2)s1`, the 50% inhibitory concentration (IC50) in series [2] worked out at 6800 nM. For `O=C(Cc1ccccn1)Nc1nnc(CCSc2nnc(NC(=O)Cc3ccccc3)s2)s1`, the IC50 in series [2] stood at 110 nM. In the case of `O=C(Cc1cccc(OC(F)(F)F)c1)Nc1nnc(CCSc2nnc(NC(=O)Cc3ccccc3)s2)s1`, the half-inhibitory concentration (IC50) in series [2] was 140 nM. On to `O=C(Cc1ccccc1)Nc1nnc(CCSc2nnc(NC(=O)Cc3ccccn3)s2)s1`, for which the IC50 in series [2] was 100 nM.

On to `CN(C)c1ccc(CC(=O)Nc2nnc(CCSc3nnc(NC(=O)Cc4ccccc4)s3)s2)cc1`, for which the IC50 in series [2] was determined as 200 nM. With `O=C(Cc1ccccc1)Nc1nnc(CCSc2nnc(NC(=O)Cc3ccccc3)s2)s1`, the IC50 in series [2] is 50 nM. In addition, the Stabilty in series [5] is 87%.

Turning to `O=C(Cc1ccccc1)Nc1nnc([C@H]2CCC[C@H](c3nnc(NC(=O)Cc4ccccc4)s3)C2)s1` (racemic), the IC50 in series [2] stood at 280 nM.
